Data taken from patent EP4335865A1, “INTERACTION BETWEEN A GLYCOLIPID AND MAJOR CAPSID PROTEIN (VP1) OF SHEEP POLYOMAVIRUS AND, METHODS, KITS AND USES THEREOF” (Eberhard-Karls-Universität Tübingen, priority 2022, dated 2024).

Assays:
[1] = test system: major capsid protein VP1 of sheep polyomavirus (ShPyV); test: Glycan microarray screening of recombinant VP1; assay type: binding; conditions: broad spectrum glycan microarray of over 900 different carbohydrate structures
From the text: To identify potential attachment factors of sheep polyomavirus (ShPyV), the inventors subjected the recombinantly expressed major capsid protein VP1 to broad spectrum glycan microarray screening of over 900 different carbohydrate structures (Fig. 1A). […] Among the four strongest reliable signals in the glycan array, which are depicted in figure 1, two stem from glycans carrying α→6 linked sialic acids, which are 9-O-Acetyl-N-acetylneuraminic acid (Neu5,9Ac) and N-glycolyl-neuraminic acid (Neu5Gc).
Among all carbohydrates in the glycan array the Forssman glycolipid is the only probe that features the Forssman disaccharide GalNAcα→3GalNAcβ.

[2] = test system: FORS+ cell binding by HPA; test: Inhibition assay of HPA binding to ovine blood cells; assay type: cell-based, sheep; conditions: exceeding amounts of trisaccharide inhibitor (Fig. 5C)
Experimental: The inventors also examine the engagement of FORS- human erythrocytes by ShPyV VP1 and compare the results to HPA, which is a commonly used indicator for aberrant glycosylation in cancerogenesis. […] In contrast, FORS+ cell binding by HPA is inhibited by exceeding amounts of both F-tri and A-tri (Fig. 5C).
Erythrocytes from defibrinated blood were diluted into FACS buffer (1× PBS + 2 % FCS) to a density of 10×10^6 cells / mL. Samples of 1×10^6 cells were incubated with labeled protein at room temperature for 30 minutes with occasional shaking. Samples were then directly transferred to the flow cytometer (LSR II, BD Biosciences). Singlet cells were gated and the fluorescent population was captured at […]. M1/87-FITC (Santa Cruz Biotechnology) and HPA Alexa Fluor™ 488 conjugate (Invitrogen), respectively were used as references. Defibrinated sheep and bovine blood were purchased from TCS Biosciences Ltd and BioTrading Benelux B.V., respectively.

[3] = test system: ShPyV VP1; test: Derivatization of VP1 crystals with oligosaccharides and structure solution; assay type: binding, sheep polyomavirus (ShPyV); conditions: crystals soaked with oligosaccharide (10 mM globo-N-tetraose)
From the text: The inventors presume that the Forssman disaccharide GalNAcα^5→3GalNAc^4, which promotes the hydrophobic interactions to VP1, is the main determinant for tropism. To corroborate this hypothesis, the inventors derivatized ShPyV VP1 crystals with globo-N-tetraose (Gb4), the glycan of the globoseries P antigen and molecular precursor of FP, and determined the structure of the complex (Table S2).
Additionally, the structural elucidation of the VP1-FP complex allows for the superposition of the epitopes of other aGalNAc antigens such as A (GalNAcα→3(Fucα→2)Gal-R) and Tn (GalNAcα→O-Ser/Thr) into the identified Forssman binding site.
Purified ShPyV VP1 was concentrated to 3.5 mg/ml. Crystallization droplets were set up comprising 1 µl protein and 1 µl reservoir solution (150 mM KSCN and 20 % (w/v) PEG 3,350). The droplets were equilibrated against the 500 µl reservoir using the hanging drop vapor diffusion method at 20 °C. For ligand derivatization, VP1 crystals were soaked in crystallization solution supplemented with the respective oligosaccharides (10 mM FA pentaose, 10 mM globo-N-tetraose, 5 mM FA pentaose + 20 mM 3'SLN, and 5 mM pentaose + 20 mM 6'SLN), at 20 °C for half an hour. Prior to flash freezing, crystals were transferred to soaking solutions supplemented with 20 % (v/v) MPD for cryo-protection. X-ray diffraction experiments were performed using the Swiss Light Source (SLS) beamline X06DA at the PSI (Villigen, Switzerland). Data were collected at a wavelength of 1 Å and an excitation time and angle of 0.1 s and 0.1° per image, respectively. All carbohydrates were purchased from Carbosynth, UK.
X-ray diffraction images were integrated and scaled using XDS software. For each data set, 2000-3000 reflections were reserved as a test set for structure validation. Phases were determined by molecular replacement using the native sheep polyomavirus VP1 structure as search model (PDB ID 6Y61) in PHASER (CCP4). […]

[4] = molecular target: human Gal-9 carbohydrate recognition domain (CRD) (Homo sapiens, UniProt O00182); conditions: carbohydrate library screening, reference 62; cited from earlier work
[5] = molecular target: ShPyV VP1; test: Crystallographic affinity determination (glycan dilution series in VP1 crystals); assay type: binding, sheep polyomavirus (ShPyV); conditions: approximate; integrated FP electron density vs concentration, Michaelis-Menten approach; 10 mM down to 0.0195 mM FP; read-out: dissociation constant between VP1 and FP (crystallographic, Kdc)
From the text: Due to the costliness of Forssman glycans, conventional biophysical affinity determination techniques were not applied. To still establish an approximate dissociation constant value, the inventors derivatize isomorphous ShPyV VP1 crystals with serially diluted Forssman pentaose (FP) solution and collect the diffraction data.
To approximate the affinity towards FA pentaose (FP) the inventors prepared a glycan dilution series in VP1 crystals, an approach that was successfully utilized in the past. [16,23]_VP1 crystals were grown as described above. The reference soaking solution (10 mM FP in 150 mM KSCN, 20 % (w/v) PEG 3,350 and 20 % (v/v) MPD) was diluted using 1:2 steps down to a final concentration of 0.0195 mM. Distinct crystals and equal soaking times were used for the parallel derivatization with FP at the different concentrations. Data collection was performed as described above. For processing, the unit cell constants of all data sets were treated as isomorphous. All diffraction intensities were scaled against the 10 mM FP reference data set using scaleit. A single structure solution was sufficient for all data sets. A VP1 model lacking all water and carbohydrate atoms, and a control tripeptide (AA 143-145) in all chains, was used for simulated annealing refinement (Phenix). […]

[6] = test system: ShPyV VP1; test: Saturation-transfer difference (STD) NMR in solution; assay type: binding, sheep polyomavirus (ShPyV); conditions: 1 mM Forssman pentaose and 1 mM 6'SL in presence of 20 µM ShPyV VP1, 298 K
From the text: To assess whether the interaction of ShPyV VP1 to Forssman pentaose (FP), the glycan portion of Forssman glycolipid, also occurs in a more physiologic setting (i.e., in solution), the inventors conducted a saturation-transfer difference (STD) NMR experiment. […] Thereby, the protein resonances remain invisible. 59,60 The inventors recorded the STD-NMR resonances from a sample comprising VP1 and the oligosaccharides Forssman pentaose and 6sialyllactose (6'SL) as ligands, for which the inventors also provide reference spectra (Fig. 2B-C). […] Since excitation transfer heavily falls off with distance, VP1 is expected to contact an extensive portion of FP during the binding event.
All nuclear magnetic resonance (NMR) data were collected in a Bruker AVIII-600 MHz spectrometer equipped with a TXI-z probe head at 298 K. The inventors performed the experiments using 3 mm NMR tubes. Samples were provided in 99 % D2O-PBS containing 20 mM KH2PO4/K2HPO4 (pH 7.4) and 150 mM NaCl. Initially, ^1H reference spectra of isolate oligosaccharides samples (4 mM Forssman pentaose and 2 mM 6'SL, respectively) were recorded. Subsequently, the ^1H resonances of a sample comprising 1 mM Forssman pentaose and 1 mM 6'SL in presence of 20 µM ShPyV VP1 were collected. From the same sample, the saturation difference transfer (STD) NMR experiment was performed. […]

Chain of human Gal-9 carbohydrate recognition domain (CRD) (O00182 1-148 limits assumed): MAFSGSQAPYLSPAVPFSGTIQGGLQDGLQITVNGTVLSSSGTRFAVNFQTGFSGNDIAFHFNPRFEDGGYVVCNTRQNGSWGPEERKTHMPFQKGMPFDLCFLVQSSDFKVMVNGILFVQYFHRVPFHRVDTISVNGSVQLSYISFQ

Row | Molecule | glycan array response (binding to VP1) [1] | further results
1 | CC(=O)N[C@H]1C(O)O[C@H](CO[C@@H]2O[C@H](CO)[C@H](O)[C@H](O)[C@H]2O)[C@H](O)[C@@H]1O (stereo partly shown) [Galβ-6GalNAc disaccharide, Galβ-6GalNAc] | relatively strong signal | –
2 | GalNAcα→3(Fucα→2)Gal-R [A antigen] | no significant binding | –
3 | CC(=O)N[C@H]1[C@@H](O[C@H]2[C@@H](O)[C@@H](CO)O[C@@H](O)[C@@H]2O[C@@H]2O[C@@H](C)[C@@H](O)[C@@H](O)[C@@H]2O)O[C@H](CO)[C@H](O)[C@@H]1O [A antigen trisaccharide] | – | inhibition of FORS+ cell binding by HPA [2]: inhibited; ligand electron density / binding in derivatized VP1 crystals [3]: unliganded VP1 pentamers
4 | CC(=O)NC1C(OC2C(O)C(CO)OC(OC3C(CO)OC(OC4C(CO)OC(O)C(O)C4O)C(O)C3O)C2O)OC(CO)C(O)C1O (stereo not shown) [Gb4, globo-N-tetraose] | – | ligand electron density / binding in derivatized VP1 crystals [3]: negligible binding affinity
5 | CC(=O)N[C@H]1[C@@H](O[C@H]2[C@@H](O)[C@@H](CO)O[C@@H](O[C@H]3[C@@H](O)[C@@H](CO)O[C@H](O[C@@H]4[C@H](O)[C@@H](O)[C@H](O[C@H]5[C@H](O)[C@@H](O)C(O)O[C@@H]5CO)O[C@@H]4CO)[C@@H]3O)[C@@H]2NC(C)=O)O[C@H](CO)[C@H](O)[C@@H]1O (stereo partly shown) [FP, GalNAcα^5→3GalNAcβ^4→3Galα^3→4Galβ^2→4Glc^1] | – | Kd [4]: 0.3 µM; Kd [5]: ~38.2 µM; STD-NMR binding to VP1 [6]: binding of FP to VP1
6 | CC(=O)N[C@H]1[C@H]([C@H](O)[C@H](O)CO)O[C@@](OC[C@H]2O[C@@H](O[C@H]3[C@H](O)[C@@H](O)[C@H](O)O[C@@H]3CO)[C@H](O)[C@@H](O)[C@H]2O)(C(=O)O)C[C@@H]1O [6'SL, 6'sialyllactose] | – | STD-NMR binding to VP1 [6]: signal of a third methyl group in the STD-NMR spectrum manifests as the only transferred resonance
7 | GM1 pentaose | relatively weak | –
8 | GalNAcα1→3GalNAcβ1→3Galα1→4Galβ1→4Glcβ1->1Cer [Forssman glycolipid] | surprisingly strong response | –
9 | Galβ→3-Tn [T antigen] | – | ligand electron density / binding in derivatized VP1 crystals [3]: unliganded VP1 pentamers
10 | GD3 tetraose | relatively weak | –
11 | CC(=O)N[C@H]1[C@H]([C@H](O)[C@H](O)CO)O[C@](OC[C@H]2O[C@@H](O[C@H]3[C@H](O)[C@@H](NC(C)=O)C(O)O[C@@H]3CO)[C@H](O)[C@@H](O)[C@H]2O)(C(=O)O)C[C@@H]1O (stereo partly shown) [6'sialyllactosamine] | relatively weak | –
12 | GTic oligosaccharide | relatively weak | –
13 | GalNAcα→O-Ser/Thr [Tn antigen] | no significant binding | –
